Some test systems named below: A549; CCRF-CEM; COLO 205; EKVX; HCT-116; HCT-15; IGROV-1; M14; MDA-MB-435; MDA-N; NCI-H226; NCI-H23; NCI/ADR-RES; OVCAR-8; SK-MEL-2; SK-MEL-5; SN12C; SNB-75; TK-10; UACC-257.
What all share (test): NCI-60 cell line screen, 48 h

The structures appear in SMILES notation.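 Dose response: 5 concentrations. Exposure: 48 h. Format: 96-well plates. Endpoint: linear interpolation; highest concentration if not reached. GI50 is the concentration that inhibits growth by half.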 Active and inactive are the calls of the source. Cut-off read from the data, not from the text of the source: active = GI50 up to about 1.1 µM and inactive = higher.

Experimental findings from ChEMBL document CHEMBL1201862, “PubChem BioAssay data set” (2004) are described below.

For the molecule `CC[C@@]1(O)C(=O)OCc2c1cc1n(c2=O)Cc2cc3c(NC(=O)CN)cccc3nc2-1`, the GI50 with A549 was 0.766 µM (active); with CCRF-CEM, < 0.01 µM (active); with COLO 205, 6.1 µM (inactive); in the test with EKVX it was 16.6 µM (inactive); in the test with HCT-116, 0.441 µM (active); in the test with HCT-15 it was 8.13 µM. Moreover, the GI50 in the test with IGROV-1 is 3.42 µM (inactive); with M14, 0.098 µM (active); with MDA-MB-435, 1.49 µM (inactive); in the test with MDA-N it was 2.1 µM (inactive); in the test with NCI-H226 it was 0.217 µM (active); in the test on NCI-H23, 0.114 µM (active). Further, the GI50 in the test with NCI/ADR-RES was 0.188 µM (active); in the test with OVCAR-8 it was 0.392 µM (active); in the test with SK-MEL-2, 3.7 µM (inactive); with SK-MEL-5, 0.407 µM (active); with SN12C, < 0.0115 µM (active); in the test with SNB-75, 0.0733 µM (active). Further, the GI50 in the test with TK-10 is 10.4 µM (inactive); with UACC-257, 1.43 µM (inactive).

As to `COC(=O)[C@@]12CSC[C@]1(C(=O)OC)N[C@@H](c1ccccc1O)C2`, the GI50 is > 100 µM (inactive) in the test on A549; > 100 µM (inactive) in the test with CCRF-CEM; > 100 µM (inactive) with COLO 205; > 100 µM (inactive) in the test on EKVX; > 100 µM (inactive) with HCT-116; greater than 100 µM in the test with HCT-15. Besides, the GI50 in the test on IGROV-1, in the test with M14, in the test on MDA-MB-435, in the test on MDA-N, in the test with NCI-H226 and in the test with NCI-H23 was > 100 µM (inactive) in each case. Also, the GI50 with NCI/ADR-RES, with OVCAR-8, with SK-MEL-2, in the test with SK-MEL-5, in the test on SN12C and in the test on SNB-75 was > 100 µM (inactive) each time. Moreover, the GI50 in the test with TK-10 and with UACC-257 was > 100 µM (inactive) throughout.

As for `CC1(C)CNC(c2ccc3c(c2)Cc2cc(C4=NC(C)(C)CN4)ccc2-3)=N1`, the GI50 in the test on A549 was > 100 µM (inactive); in the test on CCRF-CEM, 48.2 µM (inactive); with COLO 205 it was 28.2 µM (inactive); with EKVX, 60 µM (inactive); in the test with HCT-116 it was 32.8 µM (inactive); with HCT-15, greater than 100 µM. Besides, the GI50 with IGROV-1 is > 100 µM (inactive); in the test with M14, 45.1 µM (inactive); in the test on MDA-MB-435, 32.8 µM (inactive); in the test with MDA-N it was 39.8 µM (inactive); in the test with NCI-H226, 49.4 µM (inactive); in the test on NCI-H23, 35.1 µM (inactive). In addition, the GI50 is > 100 µM (inactive) with NCI/ADR-RES; 37 µM (inactive) in the test on OVCAR-8; 20.1 µM (inactive) in the test on SK-MEL-2; 60.7 µM (inactive) with SK-MEL-5; 36.6 µM (inactive) in the test on SN12C; 90.6 µM (inactive) in the test on SNB-75. In addition, the GI50 was > 100 µM (inactive) in the test on TK-10 and 31 µM (inactive) with UACC-257.

As for `CC(=O)NC1C(OCC(=O)NCCNc2ccc([N+](=O)[O-])c3[nH]c4ccccc4c(=O)c23)C(O)C(CO)OC1(C)OCc1ccccc1` (stereo not given), the GI50 with A549 is > 100 µM (inactive); in the test on CCRF-CEM, > 100 µM (inactive); in the test on COLO 205, > 100 µM (inactive); in the test on EKVX, > 100 µM (inactive); in the test with HCT-116, > 100 µM (inactive); in the test with HCT-15 it was greater than 100 µM. Also, the GI50 in the test with IGROV-1, in the test on M14, in the test on MDA-MB-435, with MDA-N, with NCI-H226 and in the test on NCI-H23 was > 100 µM (inactive) throughout. In addition, the GI50 with NCI/ADR-RES, in the test on OVCAR-8, in the test with SK-MEL-2, with SK-MEL-5, in the test on SN12C and in the test with SNB-75 was > 100 µM (inactive) in each case. Further, the GI50 in the test on TK-10 and with UACC-257 was > 100 µM (inactive) each time.

`CC1(C#N)CC(C)(C)C(/C=C2/CC(C)(C)C(/C=C3/OC(=N)CC3(C)C)=N2)=N1` (stereo not given): the GI50 in the test on A549 is 29.5 µM (inactive); in the test on CCRF-CEM, 32.4 µM (inactive); in the test with COLO 205, 16.9 µM (inactive); in the test with EKVX, 21.7 µM (inactive); with HCT-116, 28.9 µM (inactive); in the test on HCT-15 it was 17.9 µM. Besides, the GI50 in the test on IGROV-1 was 17.6 µM (inactive); in the test on M14 it was 28.9 µM (inactive); with MDA-MB-435 it was 21.7 µM (inactive); with MDA-N, 31.4 µM (inactive); in the test on NCI-H226, 40.6 µM (inactive); with NCI-H23, 22.8 µM (inactive). Moreover, the GI50 was 18.2 µM (inactive) with NCI/ADR-RES; 22.9 µM (inactive) in the test on OVCAR-8; 38.7 µM (inactive) in the test on SK-MEL-2; 16.6 µM (inactive) in the test with SK-MEL-5; 31.9 µM (inactive) in the test with SN12C; 31 µM (inactive) in the test on SNB-75. Also, the GI50 in the test on TK-10 was 31 µM (inactive); in the test on UACC-257, 18.8 µM (inactive).

For the molecule `CCCCSC1=N/C(=C\c2ccco2)C(=O)N1`, the GI50 is 43.6 µM (inactive) in the test on A549; 24.2 µM (inactive) with CCRF-CEM; 26.1 µM (inactive) in the test on COLO 205; 36.6 µM (inactive) in the test with EKVX; 56.1 µM (inactive) in the test with HCT-116; 34.6 µM in the test on HCT-15. Also, the GI50 was 36.6 µM (inactive) in the test on IGROV-1; 53.8 µM (inactive) in the test on M14; 36.7 µM (inactive) in the test with MDA-MB-435; 42.4 µM (inactive) with MDA-N; 51.5 µM (inactive) in the test on NCI-H226; 36.3 µM (inactive) in the test with NCI-H23. The GI50 in the test on NCI/ADR-RES was 31.9 µM (inactive); in the test with OVCAR-8 it was 44.1 µM (inactive); in the test with SK-MEL-2 it was 54.8 µM (inactive); in the test on SK-MEL-5, 35.4 µM (inactive); in the test on SN12C, 99.1 µM (inactive); in the test on SNB-75, 25.9 µM (inactive). The GI50 is 59.6 µM (inactive) in the test on TK-10 and 34.8 µM (inactive) in the test on UACC-257.

`CC1OC(n2cnc3c(N)nc(Cl)nc32)C(C)(O)C1O` (stereo not given): the GI50 was > 25 µM (inactive) in the test with A549; > 25 µM (inactive) in the test with CCRF-CEM; > 25 µM (inactive) in the test with COLO 205; > 25 µM (inactive) with EKVX; > 25 µM (inactive) in the test on HCT-116; greater than 25 µM in the test on HCT-15. Also, the GI50 in the test on IGROV-1, in the test with M14, in the test on MDA-MB-435, with MDA-N, in the test with NCI-H226 and in the test with NCI-H23 was > 25 µM (inactive) each time. In addition, the GI50 with NCI/ADR-RES is > 25 µM (inactive); with OVCAR-8, 19.8 µM (inactive); with SK-MEL-2 it was > 25 µM (inactive); in the test with SK-MEL-5, > 25 µM (inactive); with SN12C it was > 25 µM (inactive); in the test with SNB-75 it was 1.41 µM (inactive). Besides, the GI50 in the test on TK-10 and in the test on UACC-257 was > 25 µM (inactive) in each case.
